Data reported in patent US20210093582A1, “COMPOSITIONS FOR REDUCING TRIMETHYLAMINE-N-OXIDE AND RELATED THERAPEUTIC APPLICATIONS” (priority 2019, published 2021).

What was measured:
Format in all cases: in vivo, C57BL/6 (B6) mice
VCAM-1 = test: Aortic vascular inflammation gene expression by qPCR (VCAM-1); conditions: female B6 mice, 1.3% carnitine water, 6 weeks; mRNA normalized to GAPDH
Method: (§1) Six-week-old female C57BL/6 (B6) mice were purchased from BioLASCO (Taipei, Taiwan) and were acclimatized for 1 week. Mice were fed ad libitum with experimental diets, LabDiet Rodent 5001. The animal use protocol listed below has been reviewed and approved by the Institutional Animal Care and Use Committee (NTU105-EL-00115). In the experiment, mice were randomly divided into four groups: normal diet, 1.3% carnitine water, 1.3% carnitine water with 0.05% pterostilbene diet (around 250 mg/kg/day), and 1.3% carnitine water with antibiotic cocktail for 6 weeks. Mice received a cocktail of oral antibiotics (vancomycin 500 mg/L, metronidazole 1 g/L, neomycin 1 g/L, and ampicillin 1 g/L in drinking water) for 6 weeks. […] At the end of the six-week study, mice were euthanized by CO2 asphyxiation.
(§2) Hepatic and aortic RNA was extracted using TRIzol reagent. Phase separation was performed by adding 200 μl chloroform/1 mlTRIzol. […]
(§3) Quality of RNA and RNA concentrations were then quantified using NanoDrop 1000 spectrophotometer. […]
(§4) mRNA levels were determined by quantitative real-time PCR usingStepOnePlus Real-Time PCR system and SYBR Green master mix as compared to constitutively expressed gene (GAPDH) using the relative quantification method (ΔΔCt), Primer sequences for SYBR Green reactions were designed and synthesized by Mission Biotech.

FMO3 = test: Hepatic FMO3 mRNA expression by RT-qPCR; conditions: female B6 mice, 6 weeks; normalized to GAPDH
Method: as §1, §2, §3, §4

E-selectin = test: Aortic vascular inflammation gene expression by qPCR (E-selectin); conditions: female B6 mice, 1.3% carnitine water, 6 weeks; mRNA normalized to GAPDH
Method: as §1, §2, §3, §4

TNF-α = test: Aortic vascular inflammation gene expression by qPCR (TNF-α); conditions: female B6 mice, 1.3% carnitine water, 6 weeks; mRNA normalized to GAPDH
Method: as §1, §2, §3, §4

cecal microbiota = test: Cecal microbiota composition by 16S rRNA gene sequencing; conditions: mouse cecum, 6 weeks
Method: as §1
Microbial community composition was assessed by pyrosequencing 16S rRNA genes derived from mouse cecum (n=3 for each group). Total DNA was isolated and purified using InnuSPEED Stool DNA kit according to the manufacturer's instructions. The quality of DNA samples was assessed by NanoDrop 1000 spectrophotometer. DNA samples were sent to Biotools Co., Ltd.for 16S rRNA gene amplification, sequence library construction and sequencing. […] The library DNA was sequenced by IlluminaHiSeq2500 platform, and paired-end reads (250 bp) were generated.

[1] = Plasma TMAO level by LC-MS/MS; conditions: female B6 mice, 1.3% carnitine water, 6 weeks
Method: as §1
LC-MS/MS was used to quantify plasma L-carnitine and TMAO in positive MRM mode, with the instrument water UPLC system (Acquity, Waters, Mildford, Mass., USA) and triple quadrupole mass spectrometer (TQS, Waters Micromass, Manchester, UK). […]
The MS parameters were set as follow: 100° C. for the source temperature, 650° C. for the desolvation temperature, 2 L/h for the cone gas flow, 600 L/h for the desolvation gas flow and 1500 V for the capillary voltage. Cone voltage was set a 10 V. Concentrations of each analyte in samples were determined by calibration curves.

## C[N+](C)(C)C[C@H](O)CC(=O)[O-] [Carnitine, L-carnitine]
VCAM-1
  expression of VCAM-1 in aortas: significantly enhanced
FMO3
  hepatic FMO3 mRNA expression level: approximately three-fold increase
E-selectin
  expression of E-selectin in aortas: significantly enhanced
TNF-α
  expression of TNF-α in aortas: significantly enhanced
Cecal microbiota
  Erysipelotrichia (Turibacter) proportion / relative abundance: increase
[1]
  increase in circulating TMAO level compared to ND group: up to 8 folds
